Results published in ChEMBL document CHEMBL1201862, “PubChem BioAssay data set” (2004).
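Each compound was tested at five concentrations against cells in 96-well plates for 48 hours. Here, GI50 denotes the concentration required for 50% inhibition of growth.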 Activity calls are given as the source filed them. No stated cut-off is given here; in the data, active = GI50 up to about 1.1 µM and inactive = higher.

Experiments:
Assay in all cases: NCI anticancer screen, dose series, 48 h
K562 = system: K562
SNB-75 = system: SNB-75
MCF7 = system: MCF7
786-0 = system: 786-0
HCT-15 = system: HCT-15
LOX IMVI = system: LOX IMVI
SF-268 = system: SF-268
NCI-H226 = system: NCI-H226
UACC-257 = system: UACC-257
SF-295 = system: SF-295
DU-145 = system: DU-145
COLO 205 = system: COLO 205
NCI-H522 = system: NCI-H522
SK-MEL-5 = system: SK-MEL-5
IGROV-1 = system: IGROV-1
SK-OV-3 = system: SK-OV-3
HOP-92 = system: HOP-92
OVCAR-5 = system: OVCAR-5
TK-10 = system: TK-10
SF-539 = system: SF-539
MDA-MB-435 = system: MDA-MB-435
MDA-N = system: MDA-N
HCC 2998 = system: HCC 2998
BT-549 = system: BT-549
SK-MEL-2 = system: SK-MEL-2
SN12C = system: SN12C
MOLT-4 = system: MOLT-4
HL-60 = system: HL-60
UACC-62 = system: UACC-62
A498 = system: A498
CCRF-CEM = system: CCRF-CEM
EKVX = system: EKVX
CAKI-1 = system: CAKI-1
NCI-H23 = system: NCI-H23
SK-MEL-28 = system: SK-MEL-28
KM12 = system: KM12
SW-620 = system: SW-620
U-251 = system: U-251
ACHN = system: ACHN
NCI-H460 = system: NCI-H460
Hs-578T = system: Hs-578T
T47D = system: T47D
UO-31 = system: UO-31
PC-3 = system: PC-3
Malme-3M = system: Malme-3M
NCI/ADR-RES = system: NCI/ADR-RES
RPMI-8226 = system: RPMI-8226
OVCAR-8 = system: OVCAR-8
OVCAR-4 = system: OVCAR-4
SNB-19 = system: SNB-19
HCT-116 = system: HCT-116
OVCAR-3 = system: OVCAR-3
A549 = system: A549
MDA-MB-231 = system: MDA-MB-231
HT-29 = system: HT-29
M14 = system: M14
RXF 393 = system: RXF 393
HOP-62 = system: HOP-62

Measured: GI50

COc1ccc(CC2c3cc(OC)c(OC)cc3CC[N+]2(C)C)cc1OC (centres undefined)
> 100 µM: HCT-15
inactive: K562 > 100 µM | SNB-75 > 100 µM | MCF7 > 100 µM | 786-0 > 100 µM | LOX IMVI > 100 µM | SF-268 > 100 µM | NCI-H226 > 100 µM | UACC-257 > 100 µM | SF-295 > 100 µM | DU-145 > 100 µM | COLO 205 > 100 µM | NCI-H522 > 100 µM | SK-MEL-5 > 100 µM | IGROV-1 > 100 µM | SK-OV-3 > 100 µM | HOP-92 > 100 µM | OVCAR-5 > 100 µM | TK-10 > 100 µM | SF-539 > 100 µM | MDA-MB-435 > 100 µM | MDA-N > 100 µM | HCC 2998 > 100 µM | BT-549 > 100 µM | SK-MEL-2 > 100 µM | SN12C > 100 µM | MOLT-4 > 100 µM | HL-60 > 100 µM | UACC-62 > 100 µM | A498 > 100 µM | CCRF-CEM > 100 µM | EKVX > 100 µM | CAKI-1 > 100 µM | NCI-H23 > 100 µM | SK-MEL-28 > 100 µM | KM12 > 100 µM | SW-620 > 100 µM | U-251 > 100 µM | ACHN > 100 µM | NCI-H460 > 100 µM | Hs-578T > 100 µM | T47D > 100 µM | UO-31 > 100 µM | PC-3 > 100 µM | Malme-3M > 100 µM | NCI/ADR-RES > 100 µM | RPMI-8226 > 100 µM | OVCAR-8 > 100 µM | OVCAR-4 > 100 µM | SNB-19 > 100 µM | HCT-116 > 100 µM | OVCAR-3 > 100 µM | A549 > 100 µM | MDA-MB-231 > 100 µM | HT-29 > 100 µM

O=c1c(NCc2ccccc2)c(C2(c3ccccc3F)SCCCS2)c1=O
> 100 µM: HCT-15
inactive: SNB-75 > 100 µM | M14 > 100 µM | MCF7 > 100 µM | 786-0 > 100 µM | LOX IMVI > 100 µM | SF-268 > 100 µM | RXF 393 > 100 µM | NCI-H226 > 100 µM | UACC-257 > 100 µM | SF-295 > 100 µM | DU-145 > 100 µM | COLO 205 > 100 µM | NCI-H522 23.7 µM | SK-MEL-5 > 100 µM | IGROV-1 > 100 µM | SK-OV-3 > 100 µM | HOP-92 > 100 µM | OVCAR-5 > 100 µM | TK-10 > 100 µM | SF-539 > 100 µM | MDA-MB-435 19.5 µM | MDA-N 41.9 µM | BT-549 > 100 µM | SK-MEL-2 > 100 µM | SN12C > 100 µM | MOLT-4 54 µM | HL-60 29.2 µM | UACC-62 79.1 µM | A498 82.8 µM | CCRF-CEM > 100 µM | EKVX > 100 µM | CAKI-1 > 100 µM | NCI-H23 > 100 µM | SK-MEL-28 > 100 µM | KM12 46.1 µM | SW-620 > 100 µM | U-251 > 100 µM | ACHN > 100 µM | NCI-H460 > 100 µM | Hs-578T > 100 µM | T47D > 100 µM | UO-31 > 100 µM | PC-3 > 100 µM | NCI/ADR-RES > 100 µM | OVCAR-8 > 100 µM | OVCAR-4 > 100 µM | SNB-19 > 100 µM | HCT-116 > 100 µM | OVCAR-3 > 100 µM | A549 > 100 µM | MDA-MB-231 > 100 µM | HOP-62 > 100 µM | HT-29 > 100 µM

O=C(c1ccccc1)c1ccc2[nH]c(-c3c(Cl)c(Cl)c(Cl)c(Cl)c3C(=O)N/N=C/c3ccccc3)nc2c1
23.2 µM: HCT-15
inactive: K562 27.7 µM | SNB-75 17.9 µM | M14 31.2 µM | MCF7 13.6 µM | 786-0 26.1 µM | LOX IMVI 26.4 µM | SF-268 27.5 µM | RXF 393 14.4 µM | NCI-H226 19.9 µM | UACC-257 23.3 µM | SF-295 22.4 µM | DU-145 38 µM | COLO 205 17.5 µM | NCI-H522 18.1 µM | SK-MEL-5 14.5 µM | IGROV-1 14.9 µM | SK-OV-3 35.7 µM | HOP-92 23.7 µM | OVCAR-5 36.9 µM | TK-10 38.8 µM | SF-539 25.1 µM | MDA-MB-435 9.25 µM | MDA-N 16.3 µM | BT-549 28.5 µM | SK-MEL-2 21.6 µM | SN12C 18.9 µM | MOLT-4 11.2 µM | HL-60 18.6 µM | CCRF-CEM 12.3 µM | EKVX 18.4 µM | CAKI-1 34.1 µM | NCI-H23 23 µM | SK-MEL-28 24 µM | KM12 28.2 µM | SW-620 37.2 µM | U-251 35.8 µM | ACHN 16.7 µM | Hs-578T 37.7 µM | T47D 14.7 µM | UO-31 27.5 µM | PC-3 24.1 µM | Malme-3M 26.1 µM | NCI/ADR-RES 19.8 µM | RPMI-8226 23.4 µM | OVCAR-8 32.2 µM | OVCAR-4 16.4 µM | SNB-19 32.6 µM | HCT-116 32.1 µM | OVCAR-3 19.6 µM | A549 27.7 µM | MDA-MB-231 19.2 µM | HOP-62 23.1 µM | HT-29 30.8 µM

Nc1cccc2nnccc12
inactive: SNB-75 > 100 µM | M14 > 100 µM | MCF7 > 100 µM | 786-0 > 100 µM | SF-268 > 100 µM | RXF 393 > 100 µM | NCI-H226 > 100 µM | UACC-257 > 100 µM | SF-295 > 100 µM | DU-145 > 100 µM | COLO 205 > 100 µM | NCI-H522 19 µM | SK-MEL-5 > 100 µM | IGROV-1 > 100 µM | SK-OV-3 > 100 µM | HOP-92 > 100 µM | OVCAR-5 > 100 µM | TK-10 > 100 µM | SF-539 > 100 µM | MDA-MB-435 > 100 µM | MDA-N > 100 µM | BT-549 > 100 µM | SK-MEL-2 > 100 µM | SN12C > 100 µM | HL-60 > 100 µM | UACC-62 > 100 µM | CCRF-CEM > 100 µM | EKVX > 100 µM | CAKI-1 > 100 µM | NCI-H23 > 100 µM | KM12 > 100 µM | SW-620 > 100 µM | U-251 > 100 µM | ACHN > 100 µM | NCI-H460 > 100 µM | Hs-578T > 100 µM | T47D > 100 µM | UO-31 > 100 µM | PC-3 > 100 µM | Malme-3M > 100 µM | NCI/ADR-RES > 100 µM | RPMI-8226 > 100 µM | OVCAR-8 > 100 µM | SNB-19 > 100 µM | HCT-116 > 100 µM | A549 > 100 µM | MDA-MB-231 > 100 µM | HT-29 > 100 µM
> 100 µM: HCT-15

CNc1cc(OCc2ccccc2)c(OC)cc1C(=O)N1CCC[C@H]1CO
> 100 µM: HCT-15
inactive: SNB-75 > 100 µM | M14 > 100 µM | MCF7 > 100 µM | 786-0 > 100 µM | LOX IMVI > 100 µM | SF-268 > 100 µM | RXF 393 > 100 µM | NCI-H226 > 100 µM | UACC-257 > 100 µM | SF-295 > 100 µM | DU-145 > 100 µM | COLO 205 > 100 µM | NCI-H522 73.8 µM | SK-MEL-5 > 100 µM | IGROV-1 > 100 µM | SK-OV-3 > 100 µM | OVCAR-5 > 100 µM | TK-10 > 100 µM | SF-539 > 100 µM | MDA-MB-435 > 100 µM | MDA-N > 100 µM | BT-549 > 100 µM | SK-MEL-2 > 100 µM | SN12C > 100 µM | MOLT-4 > 100 µM | HL-60 44.1 µM | UACC-62 > 100 µM | A498 > 100 µM | CCRF-CEM 81.5 µM | EKVX > 100 µM | CAKI-1 > 100 µM | NCI-H23 > 100 µM | SK-MEL-28 > 100 µM | KM12 > 100 µM | SW-620 > 100 µM | U-251 > 100 µM | ACHN > 100 µM | Hs-578T > 100 µM | T47D > 100 µM | UO-31 63.2 µM | PC-3 > 100 µM | Malme-3M > 100 µM | NCI/ADR-RES > 100 µM | OVCAR-8 > 100 µM | OVCAR-4 70.1 µM | SNB-19 > 100 µM | HCT-116 > 100 µM | A549 > 100 µM | MDA-MB-231 > 100 µM | HOP-62 > 100 µM | HT-29 > 100 µM
